Test results reported in PubChem BioAssay AID192 (DTP/NCI, 2004).
Toxic doses and inconclusive results are not listed.

Test system: BDF1 mice, B16 melanoma ip, median survival T/C
Experiment: NCI In Vivo Anticancer Drug Screen. Data for tumor model B16 Melanoma (intraperitoneal) in B6D2F1 (BDF1) mice
Settings: endpoint: median survival time, higher = longer survival
In short: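 The ratio T/C compares compound-treated mice with vehicle-treated controls, using survival or tumor size as the endpoint in a transplantable tumor model.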

[1] = dose: 50.0 mg/kg/injection, schedule: Q01DX009 (ip), vehicle: saline
[2] = dose: 100.0 mg/kg/injection, schedule: Q01DX009 (ip), vehicle: saline
[3] = dose: 12.5 mg/kg/injection, schedule: Q01DX009 (ip), vehicle: saline with Tween-80
[4] = dose: 4.0 mg/kg/injection, schedule: Q01DX009 (ip), vehicle: saline
[5] = dose: 8.0 mg/kg/injection, schedule: Q01DX009 (ip), vehicle: saline
[6] = dose: 3.13 mg/kg/injection, schedule: Q01DX009 (ip), vehicle: saline with Tween-80
[7] = dose: 6.25 mg/kg/injection, schedule: Q01DX009 (ip), vehicle: saline with Tween-80

## Oc1ccc(C2(c3ccc(O)cc3)CCCCC2)cc1
dose: 50.0 mg/kg/injection, schedule: Q01DX009 (ip), vehicle: acetone
  T/C: 97 % of control

## N=C(N)Sc1ccccn1
dose: 12.5 mg/kg/injection, schedule: Q01DX009 (ip), vehicle: saline
  T/C: 95 % of control
dose: 12.5 mg/kg/injection, schedule: Q01DX009 (ip), vehicle: suspension in saline
  T/C: 98 % of control
dose: 25.0 mg/kg/injection, schedule: Q01DX009 (ip), vehicle: saline
  T/C: 97 % of control
dose: 25.0 mg/kg/injection, schedule: Q01DX009 (ip), vehicle: suspension in saline
  T/C: 100 % of control
[1]
  T/C: 100 % of control
dose: 50.0 mg/kg/injection, schedule: Q01DX009 (ip), vehicle: suspension in saline
  T/C: 92 % of control
[2]
  T/C: 98 % of control
dose: 100.0 mg/kg/injection, schedule: Q01DX009 (ip), vehicle: suspension in saline
  T/C: 92 % of control

## Cc1cccc(NC(=O)Nc2ccccc2)c1C
dose: 100.0 mg/kg/injection, schedule: Q01DX009 (ip), vehicle: Klucel (hydroxypropylcellulose) (HPC)
  T/C: 100 % of control

## ClC1=C(Cl)C2(Cl)C3C(Cl)C(Cl)CC3C1(Cl)C2(Cl)Cl (configuration not stated)
[3]
  T/C: 95 % of control
dose: 25.0 mg/kg/injection, schedule: Q01DX009 (ip), vehicle: saline with Tween-80
  T/C: 97 % of control

## CC[n+]1ccc(Nc2ccc(NC(=O)c3ccc(Nc4cc[n+](CC)c5ccc(N)cc45)cc3)cc2)cc1
dose: 0.5 mg/kg/injection, schedule: Q01DX009 (ip), vehicle: saline
  T/C: 95 % of control
dose: 0.5 mg/kg/injection, schedule: Q01DX009 (ip), vehicle: water
  T/C: 96 % of control
dose: 1.0 mg/kg/injection, schedule: Q01DX009 (ip), vehicle: saline
  T/C: 102 % of control
dose: 1.0 mg/kg/injection, schedule: Q01DX009 (ip), vehicle: water
  T/C: 113 % of control
dose: 2.0 mg/kg/injection, schedule: Q01DX009 (ip), vehicle: saline
  T/C: 100 % of control
dose: 2.0 mg/kg/injection, schedule: Q01DX009 (ip), vehicle: water
  T/C: 116 % of control
[4]
  T/C: 111 % of control
dose: 4.0 mg/kg/injection, schedule: Q01DX009 (ip), vehicle: water
  T/C: 106 % of control
[5]
  T/C: 114 % of control

## CC(=O)Oc1cc2c3c(c1)CCCN3CCC2
[6]
  T/C: 90 % of control
[7]
  T/C: 90 % of control
dose: 15.0 micrograms/kg/injection, schedule: Q01DX009 (ip), vehicle: saline
  T/C: 104 % of control
dose: 30.0 micrograms/kg/injection, schedule: Q01DX009 (ip), vehicle: saline
  T/C: 97 % of control
dose: 60.0 micrograms/kg/injection, schedule: Q01DX009 (ip), vehicle: saline
  T/C: 93 % of control
dose: 250.0 micrograms/kg/injection, schedule: Q01DX009 (ip), vehicle: saline with Tween-80
  T/C: 86 % of control
dose: 500.0 micrograms/kg/injection, schedule: Q01DX009 (ip), vehicle: saline with Tween-80
  T/C: 86 % of control

## C(=NCCN1CCOCC1)=NC1CCCCC1
[6]
  T/C: 108 % of control
[7]
  T/C: 110 % of control
[3]
  T/C: 114 % of control

## CCOC(=O)C(=Cc1ccccc1Cl)C(=O)OCC
dose: 50.0 mg/kg/injection, schedule: Q04DX003 (ip), vehicle: Klucel (hydroxypropylcellulose) (HPC)
  T/C: 99 % of control
dose: 100.0 mg/kg/injection, schedule: Q04DX003 (ip), vehicle: Klucel (hydroxypropylcellulose) (HPC)
  T/C: 107 % of control
dose: 200.0 mg/kg/injection, schedule: Q04DX003 (ip), vehicle: Klucel (hydroxypropylcellulose) (HPC)
  T/C: 95 % of control

## CCN(CC)CCOC(=O)c1ccccc1N(c1ccccc1)c1ccccc1
dose: 62.5 mg/kg/injection, schedule: Q01DX009 (ip), vehicle: saline sonified
  T/C: 102 % of control
dose: 125.0 mg/kg/injection, schedule: Q01DX009 (ip), vehicle: saline sonified
  T/C: 89 % of control
dose: 250.0 mg/kg/injection, schedule: Q01DX009 (ip), vehicle: saline sonified
  T/C: 89 % of control

## O=C(O)CP(=O)(O)O
[4]
  T/C: 109 % of control
[5]
  T/C: 104 % of control
dose: 16.0 mg/kg/injection, schedule: Q01DX009 (ip), vehicle: saline
  T/C: 102 % of control
dose: 32.0 mg/kg/injection, schedule: Q01DX009 (ip), vehicle: saline
  T/C: 101 % of control
[1]
  T/C: 103 % of control
dose: 64.0 mg/kg/injection, schedule: Q01DX009 (ip), vehicle: saline
  T/C: 102 % of control
[2]
  T/C: 120 % of control
dose: 200.0 mg/kg/injection, schedule: Q01DX009 (ip), vehicle: saline
  T/C: 154 % of control
dose: 400.0 mg/kg/injection, schedule: Q01DX009 (ip), vehicle: saline
  T/C: 194 % of control
dose: 800.0 mg/kg/injection, schedule: Q01DX009 (ip), vehicle: saline
  T/C: 211 % of control
